Measured values: the NIST ThermoML archive (doi:10.1016/j.jct.2016.11.002)
± gives the expanded uncertainty stated by the source.

Key:
[1] = refractive index (Na D-line) (dimensionless); xn = mol fraction of the nth substance listed; details: 100 kPa, Liquid, Standard Abbe refractometry
[2] = xn = mol fraction of the nth substance listed; details: 100 kPa, Liquid; for speed of sound: Frequency=3 MHz, Single path-length method; for mass density: Vibrating tube method

CCOCCO [2-ethoxyethan-1-ol] + CCOC(=O)OCC
Details | mass density, [2] [kg/m3] | refractive index, [1] | speed of sound, [2] [m/s]
298.15 K, x2 = 0 | 925.54 ± 1 | 1.4055 ± 0.0016 | 1302.8 ± 1.3
298.15 K, x2 = 0.0957 | 929.94 ± 1 | 1.4036 ± 0.0016 | 1287 ± 1.3
298.15 K, x2 = 0.1529 | 932.54 ± 1 | 1.4025 ± 0.0016 | 1278.3 ± 1.3
298.15 K, x2 = 0.2624 | 937.43 ± 1 | 1.4003 ± 0.0016 | 1262.2 ± 1.4
298.15 K, x2 = 0.3484 | 941.21 ± 1 | 1.3985 ± 0.0016 | 1250 ± 1.4
298.15 K, x2 = 0.4447 | 945.38 ± 1 | 1.3963 ± 0.0016 | 1236.7 ± 1.4
298.15 K, x2 = 0.5468 | 949.76 ± 1 | 1.3939 ± 0.0016 | 1223.5 ± 1.4
298.15 K, x2 = 0.6539 | 954.3 ± 1 | 1.3912 ± 0.0016 | 1210.8 ± 1.4
298.15 K, x2 = 0.7721 | 959.31 ± 1 | 1.3882 ± 0.0016 | 1198.3 ± 1.4
298.15 K, x2 = 0.8793 | 963.87 ± 1 | 1.3855 ± 0.0016 | 1188 ± 1.4
303.15 K, x2 = 0 | 920.99 ± 1 | 1.4042 ± 0.0016 | 1285 ± 1.3
303.15 K, x2 = 0.0957 | 925.24 ± 1 | 1.4024 ± 0.0016 | 1268.9 ± 1.3
303.15 K, x2 = 0.1529 | 927.76 ± 1 | 1.4012 ± 0.0016 | 1259.8 ± 1.3
303.15 K, x2 = 0.2624 | 932.5 ± 1 | 1.3989 ± 0.0016 | 1243.4 ± 1.4
303.15 K, x2 = 0.3484 | 936.17 ± 1 | 1.397 ± 0.0016 | 1230.7 ± 1.4
303.15 K, x2 = 0.4447 | 940.24 ± 1 | 1.3947 ± 0.0016 | 1217.3 ± 1.4
303.15 K, x2 = 0.5468 | 944.5 ± 1 | 1.3921 ± 0.0016 | 1204 ± 1.4
303.15 K, x2 = 0.6539 | 948.94 ± 1 | 1.3894 ± 0.0016 | 1191.1 ± 1.4
303.15 K, x2 = 0.7721 | 953.83 ± 1 | 1.3862 ± 0.0016 | 1178.3 ± 1.4
303.15 K, x2 = 0.8793 | 958.31 ± 1 | 1.3834 ± 0.0016 | 1167.8 ± 1.4
308.15 K, x2 = 0 | 916.41 ± 1 | 1.4028 ± 0.0016 | 1267.3 ± 1.3
308.15 K, x2 = 0.0957 | 920.51 ± 1 | 1.4011 ± 0.0016 | 1250.7 ± 1.3
308.15 K, x2 = 0.1529 | 922.94 ± 1 | 1.3999 ± 0.0016 | 1241.3 ± 1.3
308.15 K, x2 = 0.2624 | 927.54 ± 1 | 1.3975 ± 0.0016 | 1224.6 ± 1.4
308.15 K, x2 = 0.3484 | 931.11 ± 1 | 1.3954 ± 0.0016 | 1211.9 ± 1.4
308.15 K, x2 = 0.4447 | 935.08 ± 1 | 1.393 ± 0.0016 | 1198.3 ± 1.4
308.15 K, x2 = 0.5468 | 939.21 ± 1 | 1.3904 ± 0.0016 | 1184.7 ± 1.4
308.15 K, x2 = 0.6539 | 943.54 ± 1 | 1.3875 ± 0.0016 | 1171.6 ± 1.4
308.15 K, x2 = 0.7721 | 948.31 ± 1 | 1.3843 ± 0.0016 | 1158.4 ± 1.4
308.15 K, x2 = 0.8793 | 952.72 ± 1 | 1.3813 ± 0.0016 | 1147.6 ± 1.4
313.15 K, x2 = 0 | 911.8 ± 1 | 1.4016 ± 0.0016 | 1249.6 ± 1.3
313.15 K, x2 = 0.0957 | 915.76 ± 1 | 1.3999 ± 0.0016 | 1232.5 ± 1.3
313.15 K, x2 = 0.1529 | 918.09 ± 1 | 1.3987 ± 0.0016 | 1223 ± 1.3
313.15 K, x2 = 0.2624 | 922.55 ± 1 | 1.3961 ± 0.0016 | 1205.9 ± 1.4
313.15 K, x2 = 0.3484 | 926 ± 1 | 1.3939 ± 0.0016 | 1193 ± 1.4
313.15 K, x2 = 0.4447 | 929.84 ± 1 | 1.3914 ± 0.0016 | 1179.3 ± 1.4
313.15 K, x2 = 0.5468 | 933.88 ± 1 | 1.3886 ± 0.0016 | 1165.6 ± 1.4
313.15 K, x2 = 0.6539 | 938.09 ± 1 | 1.3857 ± 0.0016 | 1152.1 ± 1.4
313.15 K, x2 = 0.7721 | 942.77 ± 1 | 1.3823 ± 0.0016 | 1138.6 ± 1.4
313.15 K, x2 = 0.8793 | 947.11 ± 1 | 1.3792 ± 0.0016 | 1127.5 ± 1.4
318.15 K, x2 = 0 | 907.15 ± 1 | 1.4001 ± 0.0016 | 1232 ± 1.3
318.15 K, x2 = 0.0957 | 910.93 ± 1 | 1.3986 ± 0.0016 | 1214.4 ± 1.3
318.15 K, x2 = 0.1529 | 913.21 ± 1 | 1.3973 ± 0.0016 | 1204.6 ± 1.3
318.15 K, x2 = 0.2624 | 917.51 ± 1 | 1.3946 ± 0.0016 | 1187.2 ± 1.4
318.15 K, x2 = 0.3484 | 920.86 ± 1 | 1.3923 ± 0.0016 | 1174.3 ± 1.4
318.15 K, x2 = 0.4447 | 924.57 ± 1 | 1.3897 ± 0.0016 | 1160.4 ± 1.4
318.15 K, x2 = 0.5468 | 928.49 ± 1 | 1.3868 ± 0.0016 | 1146.6 ± 1.4
318.15 K, x2 = 0.6539 | 932.6 ± 1 | 1.3838 ± 0.0016 | 1132.8 ± 1.4
318.15 K, x2 = 0.7721 | 937.19 ± 1 | 1.3804 ± 0.0016 | 1119 ± 1.4
318.15 K, x2 = 0.8793 | 941.45 ± 1 | 1.377 ± 0.0016 | 1107.8 ± 1.4
323.15 K, x2 = 0 | 902.46 ± 1 | 1.3988 ± 0.0016 | 1214.3 ± 1.3
323.15 K, x2 = 0.0957 | 906.11 ± 1 | 1.3973 ± 0.0016 | 1196.3 ± 1.3
323.15 K, x2 = 0.1529 | 908.28 ± 1 | 1.396 ± 0.0016 | 1186.3 ± 1.3
323.15 K, x2 = 0.2624 | 912.44 ± 1 | 1.3931 ± 0.0016 | 1168.7 ± 1.3
323.15 K, x2 = 0.3484 | 915.7 ± 1 | 1.3907 ± 0.0016 | 1155.6 ± 1.4
323.15 K, x2 = 0.4447 | 919.3 ± 1 | 1.388 ± 0.0016 | 1141.6 ± 1.4
323.15 K, x2 = 0.5468 | 923.1 ± 1 | 1.3851 ± 0.0016 | 1127.5 ± 1.4
323.15 K, x2 = 0.6539 | 927.1 ± 1 | 1.382 ± 0.0016 | 1113.6 ± 1.4
323.15 K, x2 = 0.7721 | 931.58 ± 1 | 1.3784 ± 0.0016 | 1099.6 ± 1.4
323.15 K, x2 = 0.8793 | 935.76 ± 1 | 1.3749 ± 0.0016 | 1088.1 ± 1.4
